Here are results for two molecules from patent publication US10561739B2, “Targeted pyrrolobenzodiazapine conjugates” (priority 2010, dated 2020).

Molecules are shown by their SMILES.

Common to all, as to format: cell-based
The subject of assay [1] is A2780 parental cell line. The experiment in a line: A2780 assay (MTT cytotoxicity). To be noted: Homo sapiens, 72 hours. The procedure: The A2780 parental cell line was grown in Dulbecco's Modified Eagles' Media (DMEM) containing ˜10% Foetal Calf Serum (FCS) and ˜1% 200 mM L-Glutamine solution and grown in Corning Cellbind 75 cm^2 flasks.
A 190 μl cell suspension was added (at 1×10^4) to each well of columns 2 to 11 of a 96 well plate (Nunc 96F flat bottom TC plate), 190 μl of media was added to each well of columns 1 and 12. The media was Dulbecco's Modified Eagles' Media (DMEM) (which included ˜10% Foetal Calf Serum (FCS) and ˜1% 200 mM L-Glutamine solution).
Plates were incubated overnight at 37° C. before addition of drug if cells were adherent, 200 μM of the test compound solutions (in 100% DMSO) were serially diluted across a 96 well plate. Each resulting point was then further diluted 1/10 into sterile distilled water (SDW).
To the cell negative blanks and compound negative control wells, 10% DMSO was added at 5% v/v. Assay plates were incubated for the following durations at 37° C. in 5% CO2 in a humidified incubator for 72 hours. Following incubation, MTT solution to a final concentration of 1.5 μM was added to each well. The plates were then incubated for a further 4 hours at 37° C. in 5% CO2 in a humidified incubator. […]
Plates were read at 540 nm absorbance using an Envision plate reader. Data was analysed using Microsoft Excel and GraphPad Prism and IC50 values obtained.

The test system of assay [2] is 786-O cells. Kind of assay: Free drug 48 hour Cell Titer Glo cytotoxicity, 786-O. To be noted: Homo sapiens, 786-0, Table 3, 48 hours, read-out: IC50 Summary for Free Drugs, 786-O. As for the experimental part: (§1) Referring to the following Table 3, the activities of compounds 23, 25, are compared to that of compound 11 on 786-O, Caki-1, MCF-7, HL-60, THP-1, HEL, and TF1 cells. Cells were plated in 150 μL growth media per well into black-sided clear-bottom 96-well plates (Costar, Corning) and allowed to settle for 1 hour in the biological cabinet before placing in the incubator at 37° C., 5% CO2. The following day, 4× concentration of drug stocks were prepared, and then titrated as 10-fold serial dilutions producing 8-point dose curves and added at 50 μl per well in duplicate. Cells were then incubated for 48 hours at 37° C., 5% CO2. Cytotoxicity was measure by incubating with 100 μL Cell Titer Glo (Promega) solution for 1 hour, and then luminescence was measured on a Fusion HT plate reader (Perkin Elmer). Data was processed with Excel (Microsoft) and GraphPad (Prism) to produce dose response curves and IC50 values were generated and data collected.

In assay [3] the test system is Caki-1 cells. The experiment in a line: Free drug 48 hour Cell Titer Glo cytotoxicity, Caki-1. Conditions: Homo sapiens, Table 3, 48 hours, read-out: IC50 Summary for Free Drugs, Caki-1. The procedure: as §1
(ATP-based viability assays read luminescence as a measure of living cells.)

Assay [4] concerns TF1a cells. Kind of assay: Free drug 48 hour Cell Titer Glo cytotoxicity, TF1a. Conditions: TF-1a, Table 3, 48 hours, read-out: IC50 Summary for Free Drugs, TF1a. The procedure:
as §1

The subject of assay [5] is MCF-7 cells. Kind of assay: Free drug 48 hour Cell Titer Glo cytotoxicity, MCF-7. To be noted: Homo sapiens, MCF7, Table 3, 48 hours, read-out: IC50 Summary for Free Drugs, MCF-7. As for the experimental part:
as §1

The test system of assay [6] is HL-60 cells. The experiment in a line: Free drug 48 hour Cell Titer Glo cytotoxicity, HL-60. Conditions: Homo sapiens, Table 3, 48 hours, read-out: IC50 Summary for Free Drugs, HL-60. As for the experimental part: as §1
Assay [7] deals with HEL cells. Kind of assay: Free drug 48 hour Cell Titer Glo cytotoxicity, HEL. To be noted: Homo sapiens, Table 3, 48 hours, read-out: IC50 Summary for Free Drugs, HEL. The procedure:
as §1

The subject of assay [8] is THP-1 cells. The experiment in a line: Free drug 48 hour Cell Titer Glo cytotoxicity, THP-1. Conditions: Homo sapiens, Table 3, 48 hours, read-out: IC50 Summary for Free Drugs, THP-1. As for the experimental part: as §1
The subject of assay [9] is AML cell line HL60. The experiment in a line: Free drug 96-hour resazurin cytotoxicity assay, HL60. To be noted: Homo sapiens, HL-60, Table 1, 96-hour assay, read-out: IC50 Summary for Free Drugs, HL60. The procedure: (§2) The cytotoxicity of various free drug compounds was tested on a renal cell cancer cell line, 786-O, a Hodgkin lymphoma cell line, L428 and two AML cell lines, HL60 and HEL.
(§3) For a 96-hour assay, cells cultured in log-phase growth were seeded for 24 h in 96-well plates containing 150 μL RPMI 1640 supplemented with 20% FBS. Serial dilutions of test article (i.e., free drug) in cell culture media were prepared at 4× working concentration; 50 μL of each dilution was added to the 96-well plates. Following addition of test article, the cells were incubated with test articles for 4 days at 37° C. Resazurin was then added to each well to achieve a 50 μM final concentration, and the plates were incubated for an additional 4 h at 37° C. The plates were then read for the extent of dye reduction on a Fusion HT plate reader (Packard Instruments, Meridien, Conn., USA) with excitation and emission wavelengths of 530 and 590 nm, respectively. The IC50 value, determined in triplicate, is defined here as the concentration that results in a 50% reduction in cell growth relative to untreated controls.

The test system of assay [10] is AML cell line HEL. Kind of assay: Free drug 96-hour resazurin cytotoxicity assay, HEL. To be noted: Table 1, 96-hour assay, read-out: IC50 Summary for Free Drugs, HEL. The procedure:
as §2, §3

In assay [11] the test system is Hodgkin lymphoma cell line, L428. The experiment in a line: Free drug 96-hour resazurin cytotoxicity assay, L428. Conditions: Homo sapiens, L-428, Table 1, 96-hour assay, read-out: IC50 Summary for Free Drugs, L428. As for the experimental part: as §2, §3
The test system of assay [12] is renal cell cancer cell line, 786-O. Kind of assay: Free drug 96-hour resazurin cytotoxicity assay, 786-O. To be noted: Homo sapiens, 786-0, Table 1, 96-hour assay, read-out: IC50 Summary for Free Drugs, 786-O. As for the experimental part:
as §2, §3
On the technique in general: Resazurin is reduced to fluorescent resorufin, in cell work by metabolically active cells.

In assay [13] the test system is MCF-7 cells. The experiment in a line: Free drug cytotoxicity assay, MCF-7 (Table 2). Conditions: Homo sapiens, MCF7; Table 2; read-out: IC50 Summary for Free Drugs, MCF-7. As for the experimental part: as §3
Referring to the following Table 2, the activity of compounds 28, 30 and 32 is shown on L428, 786-O, HEL, HL-60 and MCF-7 cells, as well as the activity for compound 19 on MCF-7 cells.

Turning to `COc1ccc(C2=CN3C(=O)c4cc(OC)c(OCCCOc5cc6c(cc5OC)C(=O)N5C=C(c7ccc(N)cc7)C[C@H]5C=N6)cc4N=C[C@@H]3C2)cc1` [Compound 11, (S)-2-(4-aminophenyl)-7-methoxy-8-(3-((S)-7-methoxy-2-(4-methoxyphenyl)-5-oxo-5,11a-dihydro-1H-pyrrolo[2,1-c][1,4]benzodiazepine-8-yloxy)propoxy)-1H-pyrrolo[2,1-c][1,4]benzodiazepine-5(11aH)-one], the concentration for half-maximal inhibition (IC50) was determined as 11700 nM in assay [1]; 0.4 nM in assay [2]; 0.2 nM in assay [3]; 1 nM in assay [4]; 1 nM in [5]; 0.01 nM in assay [6]. For the same molecule, the IC50 in assay [7] was determined as 0.03 nM; in assay [8], 1 nM.

As for `COc1ccc(C2=CN3C(=O)c4cc(OC)c(OCCCOc5cc6c(cc5OC)C(=O)N5C=C(c7cccc(N)c7)C[C@H]5C=N6)cc4N=C[C@@H]3C2)cc1` [Compound 19, (S)-2-(3-aminophenyl)-7-methoxy-8-(3-((S)-7-methoxy-2-(4-methoxyphenyl)-5-oxo-5,11a-dihydro-1H-pyrrolo[2,1-c][1,4]benzodiazepine-8-yloxy)propyloxy)-1H-pyrrolo[2,1-c][1,4]benzodiazepine-5(11aH)-one], the IC50 in [9] came out at 0.6 nM; in assay [10], 0.2 nM; in assay [11], 1 nM; in [12], 0.5 nM; in assay [13] it was 5 nM.

For orientation: IC50 means the concentration needed to halve the response being measured.
